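Five compound concentrations were applied to cells in 96-well plates for 48 hours; endpoints were derived by simple linear interpolation of the resulting dose-response curve. GI50 marks 50% less growth.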 Calls of active or inactive are those of the source. No stated cut-off is given here; in the data, active = GI50 up to about 1.1 µM and inactive = higher.
How the values were obtained:
Test in all cases: NCI tumour cell line growth inhibition, 48 h
[1] = tested on: A549
[2] = tested on: HCT-116
[3] = tested on: OVCAR-4
[4] = tested on: SR
[5] = tested on: SK-OV-3
[6] = tested on: SK-MEL-2
[7] = tested on: BT-549
[8] = tested on: RXF 393
[9] = tested on: ACHN
[10] = tested on: HCT-15
[11] = tested on: U-251
[12] = tested on: NCI-H522
[13] = tested on: HL-60
[14] = tested on: NCI-H226
[15] = tested on: T47D
[16] = tested on: HOP-92
[17] = tested on: MDA-MB-231
[18] = tested on: DU-145
[19] = tested on: LOX IMVI
[20] = tested on: OVCAR-3

Row | SMILES | GI50 [1] | GI50 [2] | GI50 [3] | GI50 [4] | GI50 [5] | GI50 [6] | GI50 [7] | GI50 [8] | GI50 [9] | GI50 [10] | GI50 [11] | GI50 [12] | GI50 [13] | GI50 [14] | GI50 [15] | GI50 [16] | GI50 [17] | GI50 [18] | GI50 [19] | GI50 [20]
1 | O=C(CSc1ncccn1)N/N=C/c1ccccc1OCc1ccccc1 | 71.8 µM (inactive) | 23 µM (inactive) | 22.8 µM (inactive) | 4.23 µM (inactive) | 37.6 µM (inactive) | 21.3 µM (inactive) | 25 µM (inactive) | 21.9 µM (inactive) | 35.2 µM (inactive) | 17.3 µM | 26.8 µM (inactive) | 28.4 µM (inactive) | 21.1 µM (inactive) | 20.6 µM (inactive) | 24.8 µM (inactive) | 16.9 µM (inactive) | 30.9 µM (inactive) | 29.8 µM (inactive) | 17.4 µM (inactive) | 16.4 µM (inactive)
2 | COc1ccc(N/N=C2\C3=C(CCC(C)(C)O3)C(=O)c3ccccc32)cc1 | 16.6 µM (inactive) | 14.1 µM (inactive) | 18.3 µM (inactive) | 12.6 µM (inactive) | 37 µM (inactive) | 21.8 µM (inactive) | 19.1 µM (inactive) | 12.4 µM (inactive) | 13.7 µM (inactive) | 13.7 µM | 19.2 µM (inactive) | 17 µM (inactive) | 15.3 µM (inactive) | 52.6 µM (inactive) | 2.51 µM (inactive) | 21.1 µM (inactive) | 22.2 µM (inactive) | 25.2 µM (inactive) | 16.2 µM (inactive) | 14.9 µM (inactive)
3 | NS(=O)(=O)c1ccc(NC(=O)N/N=C/c2ccccc2O)cc1 | > 100 µM (inactive) | 48.2 µM (inactive) | > 100 µM (inactive) | 22.2 µM (inactive) | 81.5 µM (inactive) | 42 µM (inactive) | 43.8 µM (inactive) | > 100 µM (inactive) | > 100 µM (inactive) | 48 µM | 50.1 µM (inactive) | 22.4 µM (inactive) | 27.2 µM (inactive) | 66.1 µM (inactive) | 88.7 µM (inactive) | 94.4 µM (inactive) | > 100 µM (inactive) | > 100 µM (inactive) | 47.4 µM (inactive) | 42 µM (inactive)
4 | COC1/C=C\C=C(/C)C(=O)NC2=CC(=O)C(O)=C(CC(C)CC(OC)C(O)C(C)/C=C(\C)C1OC(N)=O)C2=O (stereo not given) | 4.79 µM (inactive) | 0.267 µM (active) | 10.3 µM (inactive) | 0.0406 µM (active) | 3.59 µM (inactive) | 0.893 µM (active) | 40.5 µM (inactive) | 0.136 µM (active) | 2.81 µM (inactive) | 2.26 µM | 1.03 µM (active) | 0.0596 µM (active) | 0.169 µM (active) | > 100 µM (inactive) | 7.05 µM (inactive) | 0.382 µM (active) | 0.366 µM (active) | 0.115 µM (active) | 0.406 µM (active) | 0.325 µM (active)
5 | c1ccc(-c2nn(-c3ccccc3)[n+](-c3ccccc3)n2)cc1 [TETRAZOLIUM RED] | 23.9 µM (inactive) | 6.5 µM (inactive) | 2.01 µM (inactive) | 3.37 µM (inactive) | > 100 µM (inactive) | 36.8 µM (inactive) | > 50.5 µM (inactive) | 11.6 µM (inactive) | > 78 µM (inactive) | > 100 µM | 8.97 µM (inactive) | > 37.9 µM (inactive) | 0.184 µM (active) | 24.5 µM (inactive) | > 100 µM (inactive) | 24.1 µM (inactive) | 20 µM (inactive) | > 48.5 µM (inactive) | 11.9 µM (inactive) | 0.191 µM (active)

Reference: ChEMBL document CHEMBL1201862, “PubChem BioAssay data set” (2004)
